Measured values reported in patent US10836763B2, “5 to 7 membered heterocyclic amides as JAK inhibitors” (priority 2018, dated 2020).
Read-outs that look alike come from different tables or passages of the source.

Tested on: IFNγ stimulated STAT1 phosphorylation in CD14+ monocytes
Assay: Cellular JAK potency assay: inhibition of IFNγ-induced pSTAT1
Type: cell-based
Settings: Homo sapiens, Monocyte, 0.5 h, read-out: pIC50, inhibition of IFNγ-induced pSTAT1 (converted)
Excerpt: Data are expressed as pIC50 (negative decadic logarithm IC50) values.

SMILES	IC50 (CD14+ monocytes, IFNγ 0.6 ng/mL, 30 min, flow cytometry) [µM]	IC50 [µM]
CCCN1Cc2[nH]c(-c3n[nH]c4cc(-c5ccc(O)cc5CC)ccc34)nc2C[C@H]1C(=O)N1CCN(CCO)CC1 [Compound 1, (S)-(2-(6-(2-ethyl-4-hydroxyphenyl)-1H-indazol-3-yl)-5-propyl-4,5,6,7-tetrahydro-3H-imidazo[4,5-c]pyridin-6-yl)(4-(2-hydroxyethyl)piperazin-1-yl)methanone]	0.0316	–
CCc1cc(O)ccc1-c1ccc2c(-c3nc4c([nH]3)CN(C(C)C)[C@H](C(=O)N3CCCN(C)CC3)C4)n[nH]c2c1 [Compound 4, (S)-(2-(6-(2-ethyl-4-hydroxyphenyl)-1H-indazol-3-yl)-5-isopropyl-4,5,6,7-tetrahydro-3H-imidazo[4,5-c]pyridin-6-yl)(4-methyl-1,4-diazepan-1-yl)methanone]	–	0.0501
